Data reported in ChEMBL document CHEMBL1144764, “A molecular modeling study of the interaction of 2'-fluoro-substituted analogues of dUMP/FdUMP with thymidylate synthase” (Bioorg Med Chem Lett, 2008).

Biological target: Thymidylate synthase (Homo sapiens, UniProt P04818)
Sequence (P04818 whole entry): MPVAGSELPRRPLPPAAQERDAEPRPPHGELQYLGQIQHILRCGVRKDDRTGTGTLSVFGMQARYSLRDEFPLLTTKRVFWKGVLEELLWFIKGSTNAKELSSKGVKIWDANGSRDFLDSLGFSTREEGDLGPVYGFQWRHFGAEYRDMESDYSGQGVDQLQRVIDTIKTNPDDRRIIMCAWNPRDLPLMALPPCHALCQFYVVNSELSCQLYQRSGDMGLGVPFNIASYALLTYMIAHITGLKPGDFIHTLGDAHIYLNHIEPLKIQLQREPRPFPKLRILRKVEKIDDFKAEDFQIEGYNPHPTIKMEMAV
Description: Binding affinity to human recombinant thymidylate synthase

| Ki | Compound |
| --- | --- |
| 433 µM | O=c1ccn([C@@H]2O[C@H](COP(=O)(O)O)[C@@H](O)C2(F)F)c(=O)[nH]1 |
| 10.3 µM | O=c1ccn([C@@H]2O[C@H](COP(=O)(O)O)[C@@H](O)[C@@H]2F)c(=O)[nH]1 |
